Test results published in PubChem BioAssay AID256 (DTP/NCI, 2004).
Values joined by “and” are separate entries in the source; they are usually repeats but may differ in a detail not shown here. Identical values can stand only once. Inconclusive results and toxic doses are left out.

Test system: CD2F1 mice, L1210 leukemia ip, survival T/C
Assay: NCI In Vivo Anticancer Drug Screen. Data for tumor model L1210 Leukemia (intraperitoneal) in CD2F1 (CDF1) mice
Settings: higher = longer survival
Summary of the method: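 Read-out first: treated-group measurement over vehicle-control measurement, expressed as a ratio. Animals bore a transplanted tumor line and were dosed with compound or vehicle.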

[1] = endpoint: mean survival time, dose: 100.0 mg/kg/injection, schedule: Q01DX001 (ip), vehicle: saline
[2] = endpoint: mean survival time, dose: 200.0 mg/kg/injection, schedule: Q01DX001 (ip), vehicle: saline
[3] = endpoint: mean survival time, dose: 400.0 mg/kg/injection, schedule: Q01DX001 (ip), vehicle: saline
[4] = endpoint: mean survival time, dose: 100.0 mg/kg/injection, schedule: Q04DX003 (ip), vehicle: saline
[5] = endpoint: mean survival time, dose: 200.0 mg/kg/injection, schedule: Q04DX003 (ip), vehicle: saline
[6] = endpoint: mean survival time, dose: 400.0 mg/kg/injection, schedule: Q04DX003 (ip), vehicle: saline
[7] = endpoint: mean survival time, dose: 100.0 mg/kg/injection, schedule: Q04DX003 (ip), vehicle: saline with Tween-80
[8] = endpoint: mean survival time, dose: 200.0 mg/kg/injection, schedule: Q04DX003 (ip), vehicle: saline with Tween-80
[9] = endpoint: mean survival time, dose: 400.0 mg/kg/injection, schedule: Q04DX003 (ip), vehicle: saline with Tween-80
[10] = endpoint: mean survival time, dose: 200.0 mg/kg/injection, schedule: Q01DX009 (ip), vehicle: saline with Tween-80
[11] = endpoint: mean survival time, dose: 400.0 mg/kg/injection, schedule: Q01DX009 (ip), vehicle: saline with Tween-80
[12] = endpoint: mean survival time, dose: 50.0 mg/kg/injection, schedule: Q04DX003 (ip), vehicle: saline with Tween-80
[13] = endpoint: mean survival time, dose: 25.0 mg/kg/injection, schedule: Q01DX009 (ip), vehicle: saline with Tween-80
[14] = endpoint: mean survival time, dose: 50.0 mg/kg/injection, schedule: Q01DX009 (ip), vehicle: saline with Tween-80

O=C1[O][Hg][c]2cc([N+](=O)[O-])cc3cccc1c23.O=C1[O][Hg][c]2cccc3cc([N+](=O)[O-])cc1c23
T/C [1]: 94 % of control | T/C [2]: 94 % of control | T/C [3]: 94 % of control

NCC(=O)Nc1ccc(Cl)cc1C(=O)c1ccc[nH]1
T/C [1]: 89 % of control | T/C [4]: 94 % of control | T/C [2]: 89 % of control | T/C [5]: 94 % of control | T/C [3]: 92 % of control | T/C [6]: 96 % of control

Cc1ccc(S(=O)(=O)N/N=C/c2ccc(C(=O)O)cc2)cc1
T/C (endpoint: mean survival time, dose: 12.5 mg/kg/injection, schedule: Q04DX003 (ip), vehicle: other): 101 % of control | T/C (endpoint: mean survival time, dose: 25.0 mg/kg/injection, schedule: Q04DX003 (ip), vehicle: other): 97 % of control | T/C (endpoint: mean survival time, dose: 50.0 mg/kg/injection, schedule: Q04DX003 (ip), vehicle: other): 106 % of control | T/C (endpoint: mean survival time, dose: 100.0 mg/kg/injection, schedule: Q04DX003 (ip), vehicle: other): 95 % of control | T/C (endpoint: mean survival time, dose: 200.0 mg/kg/injection, schedule: Q04DX003 (ip), vehicle: other): 95 % of control | T/C (endpoint: mean survival time, dose: 400.0 mg/kg/injection, schedule: Q04DX003 (ip), vehicle: other): 106 % of control

Cc1c2ncnc-2ncn1O
T/C (endpoint: mean survival time, dose: 25.0 mg/kg/injection, schedule: Q04DX003 (ip), vehicle: saline): 97 % of control | T/C (endpoint: mean survival time, dose: 50.0 mg/kg/injection, schedule: Q04DX003 (ip), vehicle: saline): 101 % of control | T/C [4]: 104 % of control

O=c1cc(-c2ccccc2)[nH]c2c1CCCC2
T/C (endpoint: median survival time, dose: 12.5 mg/kg/injection, schedule: Q01DX009 (ip), vehicle: saline with Tween-80): 102 % of control | T/C (endpoint: median survival time, dose: 25.0 mg/kg/injection, schedule: Q01DX009 (ip), vehicle: saline with Tween-80): 105 % of control | T/C (endpoint: median survival time, dose: 50.0 mg/kg/injection, schedule: Q01DX009 (ip), vehicle: saline with Tween-80): 103 % of control and 108 % of control and 109 % of control | T/C (endpoint: median survival time, dose: 100.0 mg/kg/injection, schedule: Q01DX009 (ip), vehicle: saline with Tween-80): 115 % of control and 116 % of control and 105 % of control | T/C (endpoint: median survival time, dose: 200.0 mg/kg/injection, schedule: Q01DX009 (ip), vehicle: saline with Tween-80): 117 % of control and 120 % of control | T/C (endpoint: median survival time, dose: 400.0 mg/kg/injection, schedule: Q01DX009 (ip), vehicle: saline with Tween-80): 90 % of control and 103 % of control

O=S(=O)(O)SCc1ccccc1
T/C [7]: 97 % of control | T/C [8]: 92 % of control | T/C [9]: 98 % of control

O=Cc1cc2c3c(c1)CCCN3CCC2
T/C [7]: 97 % of control | T/C [8]: 102 % of control | T/C [9]: 94 % of control

CN(C)N=Nc1ccccc1[N+](=O)[O-]
T/C (endpoint: mean survival time, dose: 53.0 mg/kg/injection, schedule: Q01DX001 (ip), vehicle: saline): 105 % of control | T/C (endpoint: mean survival time, dose: 53.0 mg/kg/injection, schedule: Q01DX009 (ip), vehicle: saline): 104 % of control | T/C (endpoint: mean survival time, dose: 79.0 mg/kg/injection, schedule: Q01DX001 (ip), vehicle: saline): 105 % of control | T/C (endpoint: mean survival time, dose: 79.0 mg/kg/injection, schedule: Q01DX009 (ip), vehicle: saline): 109 % of control | T/C (endpoint: mean survival time, dose: 119.0 mg/kg/injection, schedule: Q01DX001 (ip), vehicle: saline): 108 % of control | T/C (endpoint: mean survival time, dose: 119.0 mg/kg/injection, schedule: Q01DX009 (ip), vehicle: saline): 118 % of control | T/C (endpoint: mean survival time, dose: 178.0 mg/kg/injection, schedule: Q01DX001 (ip), vehicle: saline): 115 % of control | T/C (endpoint: mean survival time, dose: 600.0 mg/kg/injection, schedule: Q01DX001 (ip), vehicle: saline): 118 % of control

Oc1c(Cl)cc(Cl)cc1C=NCC1CCC(CN=Cc2cc(Cl)cc(Cl)c2O)CC1 (stereo not drawn)
T/C [8]: 90 % of control | T/C [9]: 90 % of control

COC(=O)C12CCC1(Cl)CC2 (stereo not drawn)
T/C [4]: 98 % of control | T/C [5]: 93 % of control | T/C [6]: 96 % of control

CCCCCCCCOC(=O)c1cc([N+](=O)[O-])c(Sc2ncnc3nc[nH]c23)c([N+](=O)[O-])c1
T/C (endpoint: mean survival time, dose: 11.0 mg/kg/injection, schedule: Q01DX005 (ip), vehicle: other): 112 % of control | T/C (endpoint: mean survival time, dose: 12.5 mg/kg/injection, schedule: Q01DX005 (ip), vehicle: other): 115 % of control | T/C (endpoint: mean survival time, dose: 25.0 mg/kg/injection, schedule: Q01DX005 (ip), vehicle: other): 172 % of control | T/C (endpoint: mean survival time, dose: 50.0 mg/kg/injection, schedule: Q01DX005 (ip), vehicle: other): 118 % of control | T/C (endpoint: mean survival time, dose: 100.0 mg/kg/injection, schedule: Q01DX005 (ip), vehicle: other): 107 % of control

Nc1nc(N)nc(-c2ccccn2)n1
T/C (endpoint: mean survival time, dose: 50.0 mg/kg/injection, schedule: Q01DX009 (ip), vehicle: saline): 112 % of control

COc1cccc(C(=O)O)c1OC
T/C (endpoint: mean survival time, dose: 100.0 mg/kg/injection, schedule: Q01DX009 (ip), vehicle: saline with Tween-80): 109 % of control | T/C [10]: 94 % of control | T/C [11]: 102 % of control

O=C1C(=O)c2ccccc2C(O)=C1C(C1=C(O)c2ccccc2C(=O)C1=O)c1ccc(C(C2=C(O)c3ccccc3C(=O)C2=O)C2=C(O)c3ccccc3C(=O)C2=O)cc1
T/C (endpoint: mean survival time, dose: 100.0 mg/kg/injection, schedule: Q01DX009 (ip), vehicle: saline sonified): 96 % of control | T/C (endpoint: mean survival time, dose: 200.0 mg/kg/injection, schedule: Q01DX009 (ip), vehicle: saline sonified): 97 % of control | T/C (endpoint: mean survival time, dose: 400.0 mg/kg/injection, schedule: Q01DX009 (ip), vehicle: saline sonified): 108 % of control

OC(C=C(C(F)(F)F)C(F)(F)F)c1ccccc1Cl (stereo not drawn)
T/C [12]: 102 % of control | T/C [7]: 107 % of control | T/C [8]: 111 % of control

CCOc1ccc(-n2c(-c3ccc(Br)cc3)csc2=NC(=O)c2ccccc2F)cc1
T/C [13]: 92 % of control and 100 % of control | T/C (endpoint: mean survival time, dose: 25.0 mg/kg/injection, schedule: Q04DX003 (ip), vehicle: saline with Tween-80): 88 % of control | T/C [14]: 88 % of control | T/C [12]: 94 % of control | T/C (endpoint: mean survival time, dose: 100.0 mg/kg/injection, schedule: Q01DX001 (ip), vehicle: saline with Tween-80): 93 % of control | T/C [7]: 92 % of control and 95 % of control | T/C (endpoint: mean survival time, dose: 200.0 mg/kg/injection, schedule: Q01DX001 (ip), vehicle: saline with Tween-80): 91 % of control | T/C [10]: 88 % of control and 90 % of control | T/C (endpoint: mean survival time, dose: 400.0 mg/kg/injection, schedule: Q01DX001 (ip), vehicle: saline with Tween-80): 95 % of control | T/C [11]: 90 % of control

CCOC1([N+](=O)[O-])c2ccccc2-c2nc3ccccc3cc21 (stereo not drawn)
T/C (endpoint: mean survival time, dose: 200.0 mg/kg/injection, schedule: Q04DX003 (ip), vehicle: Klucel (hydroxypropylcellulose) (HPC)): 97 % of control

C/C=C\c1ccc(OCCOC(=O)Nc2ccc(C)c([N+](=O)[O-])c2)c(OC)c1
T/C (endpoint: mean survival time, dose: 12.5 mg/kg/injection, schedule: Q01DX009 (ip), vehicle: saline with Tween-80): 98 % of control | T/C [13]: 92 % of control | T/C [14]: 88 % of control and 92 % of control | T/C [10]: 88 % of control

c1ccc2c(c1)Cc1cc3ccccc3nc1-2
T/C (endpoint: mean survival time, dose: 75.0 mg/kg/injection, schedule: Q01DX001 (ip), vehicle: saline): 102 % of control | T/C (endpoint: mean survival time, dose: 150.0 mg/kg/injection, schedule: Q01DX001 (ip), vehicle: saline): 97 % of control | T/C (endpoint: mean survival time, dose: 300.0 mg/kg/injection, schedule: Q01DX001 (ip), vehicle: saline): 101 % of control

CN(C)c1ccc(N=Nc2ccccc2)cc1
T/C (endpoint: mean survival time, dose: 31.25 mg/kg/injection, schedule: Q01DX009 (ip), vehicle: saline with Tween-80): 98 % of control | T/C (endpoint: mean survival time, dose: 62.5 mg/kg/injection, schedule: Q01DX009 (ip), vehicle: saline with Tween-80): 96 % of control | T/C (endpoint: mean survival time, dose: 62.5 mg/kg/injection, schedule: Q04DX003 (ip), vehicle: saline with Tween-80): 93 % of control | T/C (endpoint: mean survival time, dose: 125.0 mg/kg/injection, schedule: Q04DX003 (ip), vehicle: saline with Tween-80): 95 % of control

CCC(=O)O[C@H]1CC[C@H]2[C@@H]3C[C@H](F)C4=CC(=O)CC[C@]4(C)[C@H]3CC[C@]12C
T/C [4]: 102 % of control | T/C [5]: 95 % of control | T/C [6]: 95 % of control

COc1ccc(C(OCC2OC(n3ccc(NC(=O)c4ccccc4)nc3=O)C(O)C2O)(c2ccccc2)c2ccccc2)cc1 (stereo not drawn)
T/C (endpoint: median survival time, dose: 12.5 mg/kg/injection, schedule: Q01DX005 (ip), vehicle: saline with Tween-80): 100 % of control | T/C (endpoint: median survival time, dose: 25.0 mg/kg/injection, schedule: Q01DX005 (ip), vehicle: saline with Tween-80): 104 % of control | T/C (endpoint: median survival time, dose: 50.0 mg/kg/injection, schedule: Q01DX005 (ip), vehicle: saline with Tween-80): 104 % of control | T/C (endpoint: median survival time, dose: 100.0 mg/kg/injection, schedule: Q01DX005 (ip), vehicle: saline with Tween-80): 98 % of control | T/C (endpoint: median survival time, dose: 200.0 mg/kg/injection, schedule: Q01DX005 (ip), vehicle: saline with Tween-80): 95 % of control
